Test results from US7648996B2 (Biotica Technology Limited, priority 2005, dated 2010).
Marks after values point to notes of the source that are not given here.

Assays:
1138L = assay: Monolayer proliferation assay (modified propidium iodide); format: cell-based, human; conditions: mean of duplicate experiments
Experimental: (§1) In vitro evaluation of compounds for anticancer activity in a panel of 12 human tumour cell lines in a monolayer proliferation assay was carried out at the Oncotest Testing Facility, Institute for Experimental Oncology, Oncotest GmbH, Freiburg.
(§2) The Oncotest cell lines were established from human tumor xenografts as described by Roth et al. 1999. The origin of the donor xenografts was described by Fiebig et al. 1999. Other cell lines were either obtained from the NCI (H460, SF-268, OVCAR-3, DU145, MDA-MB-231, MDA-MB-468) or purchased from DSMZ, Braunschweig, Germany (LNCAP).
(§3) All cell lines, unless otherwise specified, are grown at 37° C. in a humidified atmosphere (95% air, 5% CO2) in a ‘ready-mix’ medium containing RPMI 1640 medium, 10% fetal calf serum, and 0.1 mg/mL gentamicin (PAA, Cölbe, Germany).
(§4) A modified propidium iodide assay was used to assess the effects of the test compound(s) on the growth of twelve human tumor cell lines (Dengler et al., (1995)).
(§5) Briefly, cells were harvested from exponential phase cultures by trypsinization, counted and plated in 96 well flat-bottomed microtitre plates at a cell density dependent on the cell line (5-10,000 viable cells/well). After 24 h recovery to allow the cells to resume exponential growth, 0.01 mL of culture medium (6 control wells per plate) or culture medium containing macbecin are added to the wells. Each concentration is plated in triplicate. […] Following 4 days of continuous exposure, cell culture medium with or without test compound is replaced by 0.2 mL of an aqueous propidium iodide (PI) solution (7 mg/L). To measure the proportion of living cells, cells are permeabilized by freezing the plates. After thawing the plates, fluorescence is measured using the Cytofluor 4000 microplate reader (excitation 530 nm, emission 620 nm), giving a direct relationship to the total number of viable cells.
(§6) Growth inhibition is expressed as treated/control×100 (% T/C). For active compounds, IC50 & IC70 values were estimated by plotting compound concentration versus cell viability.

251L = assay: as above; format: cell-based, human; conditions: mean of duplicate experiments
Experimental: as §1, §2, §3, §4, §5, §6

394NL = assay: as above; format: cell-based, human; conditions: mean of duplicate experiments
Experimental: as §1, §2, §3, §4, §5, §6

DU145 = assay: as above; format: cell-based, human; conditions: mean of duplicate experiments
Experimental: as §1, §2, §3, §4, §5, §6

H460 = assay: as above; format: cell-based, human; conditions: mean of duplicate experiments
Experimental: as §1, §2, §3, §4, §5, §6

LNCAP = assay: as above; format: cell-based, human; conditions: mean of duplicate experiments
Experimental: as §1, §2, §3, §4, §5, §6

MCF7 = assay: as above; format: cell-based, human; conditions: mean of duplicate experiments
Experimental: as §1, §2, §3, §4, §5, §6

OVCAR3 = assay: as above; format: cell-based, human; conditions: mean of duplicate experiments
Experimental: as §1, §2, §3, §4, §5, §6

SF268 = assay: as above; format: cell-based, human; conditions: mean of duplicate experiments
Experimental: as §1, §2, §3, §4, §5, §6

[1] = system: panel of 12 human tumour cell lines; assay: Monolayer proliferation assay, mean across the cell lines tested; format: cell-based; conditions: for IC50: Homo sapiens
Experimental: as §1, §2, §3, §4, §5, §6

FKBP12 = FKBP12 (Homo sapiens, UniProt P62942); assay: FKBP-12 in vitro binding assay (GdnHCl denaturation curve shift)
Sequence of FKBP12 (P62942 whole entry): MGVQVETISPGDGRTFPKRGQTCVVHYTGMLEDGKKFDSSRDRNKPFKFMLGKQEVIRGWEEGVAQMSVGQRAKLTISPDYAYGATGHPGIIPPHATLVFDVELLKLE
Text: FKBP12 reversibly unfolds in the chemical denaturant guandinium hydrochloride (GdnHCl) and the unfolding can be monitored by the change in the intrinsic fluorescence of the protein (Main et al, 1998). Ligands which specifically bind and stabilise the native state of FKBP12 shift the denaturation curve such that the protein unfolds at higher concentrations of chemical denaturant (Main et al, 1999). From the difference in stability, the ligand-binding constant can be determined using equation 1.
[formula] where ΔGapp is the apparent difference in free energy of unfolding between free and ligand-bound forms, ΔGD-N^H^2^O is the free energy of unfolding in water of free protein, [L] the concentration of ligand and Kd the dissociation constant for the protein-ligand complex (Meiering et al, 1992). The free energy of unfolding can be related to the midpoint of the unfolding transition using the following equation: ΔGD-N^H^2^O=mD-N[D]50% (2) where mD-N is a constant for a given protein and given denaturant and which is proportional to the change in degree of exposure of residues on unfolding (Tanford 1968 and Tanford 1970), and [D]50% is the concentration of denaturant corresponding to the midpoint of unfolding. […] Under conditions where [L]>Kd, then, ΔΔGD-N, can be related to the relative Kds of the two compounds through equation 4: […]

A498 = assay: Monolayer proliferation assay (modified propidium iodide); format: cell-based, human; conditions: mean of duplicate experiments
Experimental: as §1, §2, §3, §4, §5, §6

MDA231 = assay: as above; format: cell-based, human; conditions: mean of duplicate experiments
Experimental: as §1, §2, §3, §4, §5, §6

MDA468 = assay: as above; format: cell-based, human; conditions: mean of duplicate experiments
Experimental: as §1, §2, §3, §4, §5, §6

[2] = mean based on the 9 cell lines for which data was available
[3] = mean across the 12 cell lines tested

Kd (FKBP12) [nM] | Compound | Cell Growth (Test/Control (%) at drug concentration) (1138L; 1 μM) [%] | Cell Growth (Test/Control (%) at drug concentration) (1138L; 10 μM) [%] | Cell Growth (Test/Control (%) at drug concentration) (251L; 1 μM) [%] | Cell Growth (Test/Control (%) at drug concentration) (251L; 10 μM) [%] | Cell Growth (Test/Control (%) at drug concentration) (394NL; 1 μM) [%] | Cell Growth (Test/Control (%) at drug concentration) (394NL; 10 μM) [%] | Cell Growth (Test/Control (%) at drug concentration) (DU145; DU145, 1 μM) [%] | Cell Growth (Test/Control (%) at drug concentration) (DU145; DU145, 10 μM) [%] | Cell Growth (Test/Control (%) at drug concentration) (H460; H460, 1 μM) [%] | Cell Growth (Test/Control (%) at drug concentration) (H460; H460, 10 μM) [%] | Cell Growth (Test/Control (%) at drug concentration) (LNCAP; 1 μM) [%] | Cell Growth (Test/Control (%) at drug concentration) (LNCAP; 10 μM) [%] | Cell Growth (Test/Control (%) at drug concentration) (MCF7; MCF7, 1 μM) [%] | Cell Growth (Test/Control (%) at drug concentration) (MCF7; MCF7, 10 μM) [%] | Cell Growth (Test/Control (%) at drug concentration) (OVCAR3; OVCAR3, 1 μM) [%] | Cell Growth (Test/Control (%) at drug concentration) (OVCAR3; OVCAR3, 10 μM) [%] | Cell Growth (Test/Control (%) at drug concentration) (SF268; SF268, 1 μM) [%] | Cell Growth (Test/Control (%) at drug concentration) (SF268; SF268, 10 μM) [%] | Cell Growth (Test/Control (%) at drug concentration) (A498; A498, 1 μM) [%] | also measured
3.7 | COC1CC2CCC(C)C(O)(O2)C(=O)C(=O)N2CCCCC2C(=O)OC(C(C)CC2CCC(OCCO)CC2)CC(=O)C(C)C=C(C)C(O)C(OC)C(=O)C(C)CC(C)C=CC=CC=C1C (centres unmarked) [39-desmethoxy-40-O-(2-hydroxy)ethyl rapamycin] | 59 | 4 | 90 | 31 | 55 | 6 | 56 | 7 | 76 | 25 | 49 | 18 | 77 | 10 | 85 | 9 | 63 | 7 |  | IC50 [1, 2]: 2200 nM; Mean IC70 [1, 2]: 5.513* microM
 | CO[C@H]1C[C@@H]2CC[C@@H](C)[C@@](O)(O2)C(=O)C(=O)N2CCCC[C@H]2C(=O)O[C@H]([C@H](C)C[C@@H]2CC[C@@H](O)[C@H](OC)C2)CC(=O)[C@H](C)/C=C(\C)[C@@H](O)[C@@H](OC)C(=O)[C@H](C)C[C@H](C)/C=C/C=C/C=C/1C [Rapamycin, reference compound] | 42 | 21.5 | 75.5 | 40 | 45 | 44 | 50.5 | 54 | 67 | 66 | 61 | 34 | 68.5 | 26.5 | 69 | 69.5 | 53.5 | 46 | 58.5 | Cell Growth (Test/Control (%) at drug concentration) (A498; A498, 10 μM): 48.5%; Cell Growth (Test/Control (%) at drug concentration) (MDA231; MDA231, 1 μM): 67%; Cell Growth (Test/Control (%) at drug concentration) (MDA231; MDA231, 10 μM): 63.5%; Cell Growth (Test/Control (%) at drug concentration) (MDA468; MDA468, 1 μM): 56.5%; Cell Growth (Test/Control (%) at drug concentration) (MDA468; MDA468, 10 μM): 32%; IC50 [1, 3]: 3500 nM; Mean IC70 [1, 3]: 9.1 µM
1.1 | COC1CC2CCC(C)C(O)(O2)C(=O)C(=O)N2CCCCC2C(=O)OC(C(C)CC2CCC(OC(=O)C(C)(CO)CO)CC2)CC(=O)C(C)C=C(C)C(O)C(OC)C(=O)C(C)CC(C)C=CC=CC=C1C (centres unmarked) [39-desmethoxy-40-O-[2,2-bis(hydroxymethyl)propionyl]rapamycin] | 50 | 7.5 | 85.5 | 13 | 46 | 13 | 62.5 | 13.5 | 66 | 12 | 48.5 | 20.5 | 67 | 9 | 73.5 | 39 | 62.5 | 12 | 66 | Cell Growth (Test/Control (%) at drug concentration) (A498; A498, 10 μM): 19.5%; Cell Growth (Test/Control (%) at drug concentration) (MDA231; MDA231, 1 μM): 70.5%; Cell Growth (Test/Control (%) at drug concentration) (MDA231; MDA231, 10 μM): 13.5%; Cell Growth (Test/Control (%) at drug concentration) (MDA468; MDA468, 1 μM): 66%; Cell Growth (Test/Control (%) at drug concentration) (MDA468; MDA468, 10 μM): 9%; IC50 [1, 3]: 2000 nM; Mean IC70 [1, 3]: 4.5 µM
